Source: BindingDB's records for PubMed 35189320 (Dr.Vishwanath Karad MIT World Peace University, 2022)

Target: Sterol O-acyltransferase 1 (Homo sapiens) (UniProt P35610)
Experiment: Inhibition of human ACAT1 in HepG2 cells assessed as inhibition of […] synthesis incubated for 1 hrs followed by 13C-addition of 13C-oleic acid pre-complexed with fatty acid free BSA for 6 hrs by LC/MS/MS analysis

Chain of Sterol O-acyltransferase 1 (Homo sapiens) (P35610 whole entry, looked up): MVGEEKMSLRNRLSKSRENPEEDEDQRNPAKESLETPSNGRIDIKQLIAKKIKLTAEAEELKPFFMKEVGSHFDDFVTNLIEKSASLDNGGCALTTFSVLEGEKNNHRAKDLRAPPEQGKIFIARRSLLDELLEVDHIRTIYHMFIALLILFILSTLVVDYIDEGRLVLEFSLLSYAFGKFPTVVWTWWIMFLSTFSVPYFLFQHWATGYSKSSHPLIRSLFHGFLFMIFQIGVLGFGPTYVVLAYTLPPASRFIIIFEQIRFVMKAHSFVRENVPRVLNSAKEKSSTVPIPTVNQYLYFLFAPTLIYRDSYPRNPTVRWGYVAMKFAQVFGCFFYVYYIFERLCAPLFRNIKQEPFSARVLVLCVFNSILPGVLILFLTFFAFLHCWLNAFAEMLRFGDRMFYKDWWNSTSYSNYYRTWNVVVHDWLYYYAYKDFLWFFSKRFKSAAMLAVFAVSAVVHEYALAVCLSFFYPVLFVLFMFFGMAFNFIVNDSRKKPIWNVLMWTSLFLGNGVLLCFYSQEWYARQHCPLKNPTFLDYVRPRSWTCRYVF

IC50 [nM] | Structure (SMILES)
45 | O=C(O)CC1CCC2(CC1)CCN(c1ccc(NC(=O)c3nnc(Nc4ccc(F)c(F)c4)o3)cn1)CC2
2500 | O=C(Nc1ccc(N2CCC3(CC2)CC(C(=O)O)C3)nc1)c1nnc(Nc2ccc(F)c(F)c2)o1
